According to publication PMC7594721, “Synthesis and biological activity of 2-cyanoacrylamide derivatives tethered to imidazopyridine as TAK1 inhibitors” (Journal of Enzyme Inhibition and Medicinal Chemistry, 2020):
Entries after “also recorded” stand apart in the source; their conditions may differ.

Key:
MDA-MB-231 cells = test: Caspase-3/7 assay (Apo-ONE); type: cell-based; settings: 0.5 µM, presence of TNFα (10 ng/ml), 24 h, MDA-MB-231
Protocol: MDA-MB-231 cells were obtained from the Korean Cell Line Bank. Cells were cultured in Roswell Park Memorial Institute (RPMI) 1640 medium containing 10% foetal bovine serum and 1% penicillin/streptomycin at 37 °C with 5% CO2 under humidified atmosphere.
The assay was performed using Apo-ONE® Homogeneous Caspase-3/7 Assay kits (Catalogue No. G7790, Promega, Madison, WI). MDA-MB-231 cells in a concentration of 5000 cells/100 µl were seeded in each well of a black 96-well plate and starved after adhering to the plate. The cells were incubated for 24 h, and the serum-starved cells were treated with either Takinib or 13h in the presence or absence of TNFα (10 ng/ml). All samples and the control contained DMSO in a final concentration of 0.5%. After another 24 h of incubation, 100 µL of Apo-ONE® caspase-3/7 reagent was added to each well, and the cells were incubated at room temperature in darkness for 2 h. Fluorescence was then measured at 530 nm with excitation at 485 nm using a FlexStation 3 Multi-Mode microplate reader (Molecular Devices). Statistical analyses of the data included a one-way ANOVA, followed by Tukey’s multiple comparison test.

TAK1 = biological target: T1, TAK1 (Homo sapiens, UniProt O43318); test: TAK1 LanthaScreen Eu Kinase Binding Assay (Invitrogen; Table 1 calls it TAK1 enzymatic assay)
T1 construct: purchased Invitrogen (Thermo Fisher Scientific)
T1 sequence (O43318 with tags, fused parts or gaps limits assumed): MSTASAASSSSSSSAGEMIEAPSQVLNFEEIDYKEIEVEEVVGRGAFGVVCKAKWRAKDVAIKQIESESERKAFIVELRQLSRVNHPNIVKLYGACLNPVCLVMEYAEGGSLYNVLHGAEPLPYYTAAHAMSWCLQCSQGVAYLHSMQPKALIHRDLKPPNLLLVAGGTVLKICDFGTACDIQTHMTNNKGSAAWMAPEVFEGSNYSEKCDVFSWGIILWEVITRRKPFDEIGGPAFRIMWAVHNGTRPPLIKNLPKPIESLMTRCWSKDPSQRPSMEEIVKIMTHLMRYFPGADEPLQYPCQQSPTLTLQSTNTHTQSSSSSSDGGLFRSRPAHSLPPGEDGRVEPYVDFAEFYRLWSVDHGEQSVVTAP
Protocol: (§1) Kinase assays were performed by Invitrogen (now Thermo Fisher Scientific, Waltham, MA) or Reaction Biology Corp. (Malvern, PA). Inhibitory activity of compounds for TAK1 was evaluated using LanthaScreen® Eu Kinase Binding Assay (Invitrogen, Waltham, MA). The kinase profile of compound 13h was determined by the kinase HotSpot Profiling service of Reaction Biology Corporation. All assays were performed at Km for ATP.
Table 1. TAK1 enzymatic assay with imidazopyridine derivatives. ^a In-vitro enzymatic assay data obtained from Invitrogen^TM.

MINK1/MAP4K6 = biological target: T2, MINK1/MAP4K6 (Homo sapiens, UniProt Q8N4C8); test: Kinase HotSpot profiling (Reaction Biology Corp.); type: biochemical; settings: ATP at Km
T2 construct: purchased Reaction Biology Corp
T2 sequence (Q8N4C8 whole entry): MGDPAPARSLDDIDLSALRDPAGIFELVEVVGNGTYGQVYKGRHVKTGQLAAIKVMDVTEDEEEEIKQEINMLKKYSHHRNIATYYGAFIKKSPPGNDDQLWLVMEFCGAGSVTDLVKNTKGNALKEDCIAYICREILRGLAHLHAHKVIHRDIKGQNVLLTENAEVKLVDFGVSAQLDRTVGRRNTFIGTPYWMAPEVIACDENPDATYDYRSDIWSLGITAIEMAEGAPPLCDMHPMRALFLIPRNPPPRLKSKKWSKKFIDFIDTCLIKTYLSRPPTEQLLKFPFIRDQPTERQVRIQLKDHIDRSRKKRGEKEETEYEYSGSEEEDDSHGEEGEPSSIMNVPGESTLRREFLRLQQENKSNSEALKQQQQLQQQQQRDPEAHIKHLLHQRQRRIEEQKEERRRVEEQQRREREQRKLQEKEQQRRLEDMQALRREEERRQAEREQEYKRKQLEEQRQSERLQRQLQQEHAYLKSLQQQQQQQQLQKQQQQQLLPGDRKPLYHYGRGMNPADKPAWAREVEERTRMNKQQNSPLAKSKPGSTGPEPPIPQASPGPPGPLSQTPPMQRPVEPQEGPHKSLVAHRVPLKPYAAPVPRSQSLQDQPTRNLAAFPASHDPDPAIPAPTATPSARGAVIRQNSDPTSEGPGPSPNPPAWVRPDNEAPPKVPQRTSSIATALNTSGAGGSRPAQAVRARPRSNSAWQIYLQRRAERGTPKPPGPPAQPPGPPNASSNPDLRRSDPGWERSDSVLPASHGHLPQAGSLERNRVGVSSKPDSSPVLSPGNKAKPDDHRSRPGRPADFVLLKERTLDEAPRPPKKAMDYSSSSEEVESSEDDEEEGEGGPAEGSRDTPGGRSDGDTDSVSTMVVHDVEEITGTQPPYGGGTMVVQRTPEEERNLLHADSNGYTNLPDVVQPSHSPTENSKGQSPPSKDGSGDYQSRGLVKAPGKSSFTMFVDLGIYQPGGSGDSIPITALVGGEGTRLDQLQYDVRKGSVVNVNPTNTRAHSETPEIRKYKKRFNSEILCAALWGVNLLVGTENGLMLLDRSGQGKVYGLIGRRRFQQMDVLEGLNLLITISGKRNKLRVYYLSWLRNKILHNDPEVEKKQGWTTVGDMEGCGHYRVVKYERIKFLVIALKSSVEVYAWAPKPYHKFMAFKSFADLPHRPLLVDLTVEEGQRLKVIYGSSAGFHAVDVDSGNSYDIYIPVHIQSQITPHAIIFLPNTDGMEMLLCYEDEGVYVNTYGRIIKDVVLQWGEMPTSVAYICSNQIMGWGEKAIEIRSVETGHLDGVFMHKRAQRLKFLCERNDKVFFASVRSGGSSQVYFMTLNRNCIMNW
Protocol: as §1

MEK1/MAP2K1 = biological target: T3, MEK1/MAP2K1 (Homo sapiens, UniProt Q02750); test: Kinase HotSpot profiling (Reaction Biology Corp.); type: biochemical; settings: ATP at Km
T3 construct: purchased Reaction Biology Corp
T3 sequence (Q02750 whole entry): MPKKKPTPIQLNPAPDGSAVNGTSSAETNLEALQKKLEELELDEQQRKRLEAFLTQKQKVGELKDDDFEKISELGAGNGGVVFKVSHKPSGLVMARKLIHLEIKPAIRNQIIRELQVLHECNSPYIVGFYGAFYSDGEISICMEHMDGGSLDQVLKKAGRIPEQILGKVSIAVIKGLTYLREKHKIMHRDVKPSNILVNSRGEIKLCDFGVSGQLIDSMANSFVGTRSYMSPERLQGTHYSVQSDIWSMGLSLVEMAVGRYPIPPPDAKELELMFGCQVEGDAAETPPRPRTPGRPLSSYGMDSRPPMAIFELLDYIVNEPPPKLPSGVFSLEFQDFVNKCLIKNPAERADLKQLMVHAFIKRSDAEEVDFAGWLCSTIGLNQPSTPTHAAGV
Protocol: as §1

MEKK1 = biological target: T4, MEKK1 (Homo sapiens, UniProt Q13233); test: Kinase HotSpot profiling (Reaction Biology Corp.); type: biochemical; settings: ATP at Km
T4 construct: purchased Reaction Biology Corp
Protocol: as §1

ASK1/MAP3K5 = biological target: T5, ASK1/MAP3K5 (Homo sapiens, UniProt Q99683); test: Kinase HotSpot profiling (Reaction Biology Corp.); type: biochemical; settings: ATP at Km
T5 construct: purchased Reaction Biology Corp
T5 sequence (Q99683 1-1374): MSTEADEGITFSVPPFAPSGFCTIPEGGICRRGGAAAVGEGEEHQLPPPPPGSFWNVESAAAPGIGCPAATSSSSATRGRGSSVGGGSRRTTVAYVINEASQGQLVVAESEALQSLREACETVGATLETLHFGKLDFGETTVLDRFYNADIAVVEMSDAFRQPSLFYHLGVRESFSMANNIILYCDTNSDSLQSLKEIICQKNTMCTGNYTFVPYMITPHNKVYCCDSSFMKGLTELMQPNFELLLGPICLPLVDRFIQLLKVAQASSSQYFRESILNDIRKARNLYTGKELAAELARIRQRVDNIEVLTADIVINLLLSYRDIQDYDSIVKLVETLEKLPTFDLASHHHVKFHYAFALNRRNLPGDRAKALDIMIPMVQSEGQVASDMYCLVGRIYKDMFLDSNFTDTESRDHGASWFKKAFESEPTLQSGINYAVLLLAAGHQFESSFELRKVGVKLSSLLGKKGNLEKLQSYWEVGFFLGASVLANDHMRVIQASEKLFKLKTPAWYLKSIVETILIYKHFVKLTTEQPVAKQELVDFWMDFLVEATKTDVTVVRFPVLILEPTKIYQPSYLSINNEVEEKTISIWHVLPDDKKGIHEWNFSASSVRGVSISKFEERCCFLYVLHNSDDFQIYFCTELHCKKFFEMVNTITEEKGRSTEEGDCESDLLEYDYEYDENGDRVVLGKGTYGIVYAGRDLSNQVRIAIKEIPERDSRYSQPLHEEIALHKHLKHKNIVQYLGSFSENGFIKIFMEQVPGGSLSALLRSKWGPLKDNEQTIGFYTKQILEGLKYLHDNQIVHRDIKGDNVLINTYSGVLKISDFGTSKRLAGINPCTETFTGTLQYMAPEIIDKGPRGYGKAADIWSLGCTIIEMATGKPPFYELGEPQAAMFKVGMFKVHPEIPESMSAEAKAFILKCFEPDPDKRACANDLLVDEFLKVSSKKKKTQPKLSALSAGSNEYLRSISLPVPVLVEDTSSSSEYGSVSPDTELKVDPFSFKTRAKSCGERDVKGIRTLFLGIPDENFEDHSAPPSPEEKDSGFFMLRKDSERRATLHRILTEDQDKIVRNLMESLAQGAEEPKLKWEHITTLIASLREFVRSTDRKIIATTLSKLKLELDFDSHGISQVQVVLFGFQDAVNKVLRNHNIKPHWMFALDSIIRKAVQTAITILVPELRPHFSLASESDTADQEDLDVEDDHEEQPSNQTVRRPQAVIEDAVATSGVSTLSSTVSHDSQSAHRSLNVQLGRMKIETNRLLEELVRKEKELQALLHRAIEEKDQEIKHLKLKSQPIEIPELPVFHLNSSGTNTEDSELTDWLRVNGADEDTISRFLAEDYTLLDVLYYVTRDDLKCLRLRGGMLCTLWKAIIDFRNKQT
Protocol: as §1

MLK2/MAP3K10 = biological target: T6, MLK2/MAP3K10 (Homo sapiens, UniProt Q02779); test: Kinase HotSpot profiling (Reaction Biology Corp.); type: biochemical; settings: ATP at Km
T6 construct: purchased Reaction Biology Corp
T6 sequence (Q02779 whole entry): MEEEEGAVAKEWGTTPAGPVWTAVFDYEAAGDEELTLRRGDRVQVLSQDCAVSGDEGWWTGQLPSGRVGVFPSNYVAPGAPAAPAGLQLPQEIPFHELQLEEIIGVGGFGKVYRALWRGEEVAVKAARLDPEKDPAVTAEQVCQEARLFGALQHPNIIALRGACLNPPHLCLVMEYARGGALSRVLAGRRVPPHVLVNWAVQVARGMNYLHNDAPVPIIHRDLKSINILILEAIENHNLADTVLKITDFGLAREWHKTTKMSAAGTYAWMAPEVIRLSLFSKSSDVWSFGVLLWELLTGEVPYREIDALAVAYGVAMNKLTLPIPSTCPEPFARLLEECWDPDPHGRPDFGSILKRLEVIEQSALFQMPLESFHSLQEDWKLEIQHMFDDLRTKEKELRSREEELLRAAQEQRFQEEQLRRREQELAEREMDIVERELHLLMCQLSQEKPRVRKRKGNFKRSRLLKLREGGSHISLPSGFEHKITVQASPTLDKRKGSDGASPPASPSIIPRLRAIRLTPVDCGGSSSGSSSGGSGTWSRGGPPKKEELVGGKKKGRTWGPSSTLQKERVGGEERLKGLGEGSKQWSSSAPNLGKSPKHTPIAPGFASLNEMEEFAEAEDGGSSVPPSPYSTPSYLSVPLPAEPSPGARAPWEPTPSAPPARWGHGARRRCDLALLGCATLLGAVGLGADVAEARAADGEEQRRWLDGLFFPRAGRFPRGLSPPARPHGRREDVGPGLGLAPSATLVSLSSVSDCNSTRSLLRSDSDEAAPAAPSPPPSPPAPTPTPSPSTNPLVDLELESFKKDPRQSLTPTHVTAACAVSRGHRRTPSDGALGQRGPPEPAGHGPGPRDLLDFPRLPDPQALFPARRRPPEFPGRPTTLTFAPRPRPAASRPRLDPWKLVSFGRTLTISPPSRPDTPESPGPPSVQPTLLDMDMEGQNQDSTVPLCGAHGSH
Protocol: as §1

MLK1/MAP3K9 = biological target: T7, MLK1/MAP3K9 (Homo sapiens, UniProt P80192); test: Kinase HotSpot profiling (Reaction Biology Corp.); type: biochemical; settings: ATP at Km
T7 construct: purchased Reaction Biology Corp
Protocol: as §1

ZAK/MLTK = biological target: T8, ZAK/MLTK (Homo sapiens, UniProt Q9NYL2); test: Kinase HotSpot profiling (Reaction Biology Corp.); type: biochemical; settings: ATP at Km
T8 construct: purchased Reaction Biology Corp
T8 sequence (Q9NYL2 whole entry): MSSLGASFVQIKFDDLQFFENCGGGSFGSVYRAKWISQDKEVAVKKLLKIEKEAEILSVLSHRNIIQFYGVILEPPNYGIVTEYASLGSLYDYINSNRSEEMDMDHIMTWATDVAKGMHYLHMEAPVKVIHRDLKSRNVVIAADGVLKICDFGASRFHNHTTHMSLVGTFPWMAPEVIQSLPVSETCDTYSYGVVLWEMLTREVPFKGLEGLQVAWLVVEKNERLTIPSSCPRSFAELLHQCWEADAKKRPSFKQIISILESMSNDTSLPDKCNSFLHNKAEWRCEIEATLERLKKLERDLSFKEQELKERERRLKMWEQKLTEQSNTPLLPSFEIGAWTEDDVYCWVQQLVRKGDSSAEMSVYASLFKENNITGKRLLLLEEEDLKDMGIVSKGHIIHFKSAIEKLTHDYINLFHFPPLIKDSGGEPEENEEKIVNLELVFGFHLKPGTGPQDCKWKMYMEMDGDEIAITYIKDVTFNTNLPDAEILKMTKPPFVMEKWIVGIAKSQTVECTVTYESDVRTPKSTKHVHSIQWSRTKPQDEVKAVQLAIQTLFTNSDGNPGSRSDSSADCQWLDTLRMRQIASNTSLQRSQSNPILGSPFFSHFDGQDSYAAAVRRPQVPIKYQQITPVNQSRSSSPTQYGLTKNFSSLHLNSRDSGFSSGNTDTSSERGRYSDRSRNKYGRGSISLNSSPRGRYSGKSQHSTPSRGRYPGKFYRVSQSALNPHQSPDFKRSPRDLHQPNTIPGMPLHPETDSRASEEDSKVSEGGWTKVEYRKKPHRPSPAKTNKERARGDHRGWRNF
Protocol: as §1

BRAF = biological target: T9, BRAF (Homo sapiens, UniProt P15056); test: Kinase HotSpot profiling (Reaction Biology Corp.); type: biochemical; settings: ATP at Km
T9 construct: purchased Reaction Biology Corp
T9 sequence (P15056 whole entry): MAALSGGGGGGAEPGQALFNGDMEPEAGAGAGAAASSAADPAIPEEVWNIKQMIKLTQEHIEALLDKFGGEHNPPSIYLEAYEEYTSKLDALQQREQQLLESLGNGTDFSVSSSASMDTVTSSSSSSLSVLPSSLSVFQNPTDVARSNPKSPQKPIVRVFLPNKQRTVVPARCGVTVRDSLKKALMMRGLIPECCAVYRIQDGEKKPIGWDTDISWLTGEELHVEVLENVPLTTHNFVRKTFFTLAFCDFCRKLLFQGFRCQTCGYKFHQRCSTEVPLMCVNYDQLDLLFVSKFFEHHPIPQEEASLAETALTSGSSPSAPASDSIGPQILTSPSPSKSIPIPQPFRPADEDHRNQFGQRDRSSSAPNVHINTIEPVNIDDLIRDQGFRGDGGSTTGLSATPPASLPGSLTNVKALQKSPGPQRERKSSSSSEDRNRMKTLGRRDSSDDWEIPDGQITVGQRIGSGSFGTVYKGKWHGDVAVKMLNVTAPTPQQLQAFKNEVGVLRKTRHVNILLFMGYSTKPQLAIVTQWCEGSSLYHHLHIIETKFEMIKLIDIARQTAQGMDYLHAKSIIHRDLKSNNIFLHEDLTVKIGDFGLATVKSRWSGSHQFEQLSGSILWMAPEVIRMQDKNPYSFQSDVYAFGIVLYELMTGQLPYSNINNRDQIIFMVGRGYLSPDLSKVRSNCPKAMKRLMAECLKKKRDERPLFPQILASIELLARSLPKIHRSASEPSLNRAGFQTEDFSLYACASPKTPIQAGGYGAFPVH
Protocol: as §1

Q: `Cc1cccc(/C=C(\C#N)C(=O)N[C@@H]2CCN(c3c(Cl)cnc4[nH]c(-c5ccc(N6CCN(C)CC6)cc5)nc34)C2)n1` [Compound 13h, (R,E)-N-(1–(6-chloro-2–(4-(4-methylpiperazin-1-yl)phenyl)-3H-imidazo[4,5-b]pyridin-7-yl)pyrrolidin-3-yl)-2-cyano-3-(6-methylpyridin-2-yl)acrylamide] was tested. Which caspase-3/7 activity (MDA-MB-231 cells) did it give?
A: induced significant caspase activation

Q: And the “TAK1 potency, SAR result in words” value (TAK1; Table 1 SAR discussion)?
A: maintained or improved potency; also recorded: excellent

Q: And the IC50 (TAK1; read-out: IC50 against TAK1)?
A: 27 nM

Q: What about the inhibition at 1 µM (MINK1/MAP4K6) of the same compound?
A: 15 ± 2.4%

Q: And the inhibition at 1 µM (MEK1/MAP2K1)?
A: 10 ± 0.7%

Q: What about the inhibition at 1 µM (MEKK1) of the same compound?
A: 12 ± 0.7%

Q: What about the inhibition at 1 µM (ASK1/MAP3K5) of the same compound?
A: 4%

Q: What about the inhibition at 1 µM (MLK2/MAP3K10) of the same compound?
A: 30 ± 2%

Q: And the inhibition at 1 µM (MLK1/MAP3K9)?
A: 35 ± 1.2%

Q: And the inhibition at 1 µM (ZAK/MLTK)?
A: 29 ± 1.4%

Q: What about the inhibition at 1 µM (BRAF) of the same compound?
A: 0%
